# Assay results as given in patent US5677297A, “Benzazepine-, benzoxazepine- and benzothiazepine-n-acetic acid derivatives, process for their preparation and pharmaceutical compositions containing them” (Solvay Pharmaceuticals GmbH, priority 1995, dated 1997).
# Assay: In vivo determination of the effect on diuresis/natriuresis in volume-loaded rats
# Set-up: species or system rat (male Wistar)
# Settings: urine collected over 60 min
# Experimental: 4. In vivo determination of the effect of the substances on diuresis/natriuresis in volume-loaded rats.
# The in vivo activity was investigated in volume-loaded rats. In this experiment a high cardiac filling pressure was caused by infusion of isotonic sodium chloride solution, which results in ANP release and thus diuresis/natriuresis.
# The tests are carried out with male Wistar rats having a body weight of 200-400 g. Under neuroleptanalgesia (fentanyl; Hypnorm™, manufactured by Janssen), a catheter was placed in the right femoral vein for the baseline infusion and the volume loading with isotonic sodium chloride solution. After the abdominal cavity had been opened, a second catheter was inserted into the bladder, and the urethra was tied off so that it was possible to measure the urine volume, natriuresis and kaliuresis.
# The abdominal cavity was closed again and the animals received a continuous infusion with sodium chloride solution (0.5 ml/100 g body weight) throughout the 2 hours of the test. After an equilibration period of 30 minutes, in a preliminary phase before the test substance was given, urine samples were collected three times over a period of 10 minutes in each case. These preliminary values ("predrug" values) were determined in order to check that there was a continuous flow of urine in the test animals.
# The solutions containing test substances were then administered intravenously (bolus injection into the femoral vein) or orally (by gavage) to groups of 10 rats each. With both modes of administration, in each case one control group of animals received only placebo solutions which contained no active substance. 5 Minutes after i.v. administration or 120 minutes after oral administration of the substances, the rats were loaded with an increased volume of sodium chloride solution i.v. (2 ml/100 g body weight in 2 minutes) and the urine was collected over a period of 60 min. The amounts of urine produced in this period were determined, and the sodium and potassium contents therein were measured. The increase in excretion which took place under volume loading by comparison with the preliminary values was deduced from the resulting amounts of urine.
# Furthermore, the amounts of sodium and potassium excreted under volume loading after administration of test substance are also indicated as a percentage of the amounts of sodium and potassium excreted under volume loading after placebo administration.
smiles,measurement,setting,value
"O=C(O)CN1C(=O)[C@@H](NC(=O)C2(C[C@@H](CCc3ccccc3)C(=O)O)CCCC2)CCc2ccccc21 [Example 8, (3S,2'R)-3-[1-(2'-Carboxy-4'-phenylbutyl)cyclopentane-1-carbonylamino]-2,3,4,5-tetrahydro-2-oxo-1H-1-benzazepine-1-acetic acid]",Increase in the excretion of urine under volume loading after administration of test substance as % based on the increase after placebo administration,0.1 mg/kg i.v.,123.5%
same,Increase in the excretion of urine under volume loading after administration of test substance as % based on the increase after placebo administration,1.0 mg/kg i.v.,153.7%
same,"K excretion under volume loading, amount excreted after administration of test substance as % of the amount excreted after placebo administration",0.1 mg/kg i.v.,80.8%
same,"K excretion under volume loading, amount excreted after administration of test substance as % of the amount excreted after placebo administration",1.0 mg/kg i.v.,121.8%
same,"Na excretion under volume loading, amount excreted after administration of test substance as % of the amount excreted after placebo administration",0.1 mg/kg i.v.,160.9%
same,"Na excretion under volume loading, amount excreted after administration of test substance as % of the amount excreted after placebo administration",1.0 mg/kg i.v.,230.4%
